This experiment addresses T1, DHS (deoxyhypusine synthase) from Ixodes ricinus (Ixodes ricinus, UniProt A0A0K8RJK0).
T1 construct: cDNA from salivary gland RNA; pET-28a(+) N-terminal His tag/thrombin/T7 tag, removal not mentioned; E. coli BL21(DE3), Ni-NTA native purification
T1 sequence (A0A0K8RJK0 1-365): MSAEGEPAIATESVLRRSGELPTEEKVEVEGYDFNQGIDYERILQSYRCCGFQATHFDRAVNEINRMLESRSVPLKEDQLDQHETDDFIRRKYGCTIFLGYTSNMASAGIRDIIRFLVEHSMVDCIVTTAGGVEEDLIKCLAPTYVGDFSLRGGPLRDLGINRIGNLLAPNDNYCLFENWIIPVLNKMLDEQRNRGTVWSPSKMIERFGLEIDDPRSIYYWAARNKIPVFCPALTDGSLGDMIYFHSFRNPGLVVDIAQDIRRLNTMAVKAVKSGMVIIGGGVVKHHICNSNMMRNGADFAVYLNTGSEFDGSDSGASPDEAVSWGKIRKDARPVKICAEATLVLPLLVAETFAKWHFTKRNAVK
Kind of experiment: DHS activity assay, GC/MS detection of deoxyhypusine. The experiment is classed as biochemical. Particulars: 2.1 mM spermidine, co-substrate human eIF5A precursor 40 μg, 3 mM NAD, glycine NaOH buffer, 37 °C, 1 h; specific activity only.

Each structure is given as a SMILES string.

`NCCCCNCCCN` [spermidine]: the “DHS activity assay, GC/MS detection of deoxyhypusine” value was “No DHS activity was detected in control experiments without either the precursor protein”.

The values are drawn from paper PMC12420206, “The hypusine pathway in Ixodes ricinus: molecular cloning and validation of deoxyhypusine synthase as a novel target for drug discovery to treat and prevent vector borne diseases” (Frontiers in Cellular and Infection Microbiology, 2025).
